The values below come from PMC8629796, “Inhibition of the hERG potassium channel by phenanthrene: a polycyclic aromatic hydrocarbon pollutant” (Cellular and Molecular Life Sciences: CMLS, 2021).

SMILES strings stand for the structures.

The target of series [1] is T1, zebrafish ERG (zERG) (Danio rerio, UniProt A0A8M1PIE0).
T1 construct: gene kcnh6a
In words: whole-cell patch clamp, current inhibition. Type of series: cell-based.

Series [2] has as its target T2, hERG (hERG1a, Kv11.1) potassium channel (Homo sapiens, UniProt Q12809, Y652A).
T2 construct: gene KCNH2; hERG1a Y652A transiently expressed in HEK293 cells
In words: whole-cell patch clamp, tail current inhibition. Type of series: cell-based.

In series [3] the target is T3, hERG (hERG1a, Kv11.1) potassium channel (Homo sapiens, UniProt Q12809).
T3 construct: gene KCNH2; WT hERG1a stably expressed in HEK293 cells
T3 sequence (Q12809 whole entry): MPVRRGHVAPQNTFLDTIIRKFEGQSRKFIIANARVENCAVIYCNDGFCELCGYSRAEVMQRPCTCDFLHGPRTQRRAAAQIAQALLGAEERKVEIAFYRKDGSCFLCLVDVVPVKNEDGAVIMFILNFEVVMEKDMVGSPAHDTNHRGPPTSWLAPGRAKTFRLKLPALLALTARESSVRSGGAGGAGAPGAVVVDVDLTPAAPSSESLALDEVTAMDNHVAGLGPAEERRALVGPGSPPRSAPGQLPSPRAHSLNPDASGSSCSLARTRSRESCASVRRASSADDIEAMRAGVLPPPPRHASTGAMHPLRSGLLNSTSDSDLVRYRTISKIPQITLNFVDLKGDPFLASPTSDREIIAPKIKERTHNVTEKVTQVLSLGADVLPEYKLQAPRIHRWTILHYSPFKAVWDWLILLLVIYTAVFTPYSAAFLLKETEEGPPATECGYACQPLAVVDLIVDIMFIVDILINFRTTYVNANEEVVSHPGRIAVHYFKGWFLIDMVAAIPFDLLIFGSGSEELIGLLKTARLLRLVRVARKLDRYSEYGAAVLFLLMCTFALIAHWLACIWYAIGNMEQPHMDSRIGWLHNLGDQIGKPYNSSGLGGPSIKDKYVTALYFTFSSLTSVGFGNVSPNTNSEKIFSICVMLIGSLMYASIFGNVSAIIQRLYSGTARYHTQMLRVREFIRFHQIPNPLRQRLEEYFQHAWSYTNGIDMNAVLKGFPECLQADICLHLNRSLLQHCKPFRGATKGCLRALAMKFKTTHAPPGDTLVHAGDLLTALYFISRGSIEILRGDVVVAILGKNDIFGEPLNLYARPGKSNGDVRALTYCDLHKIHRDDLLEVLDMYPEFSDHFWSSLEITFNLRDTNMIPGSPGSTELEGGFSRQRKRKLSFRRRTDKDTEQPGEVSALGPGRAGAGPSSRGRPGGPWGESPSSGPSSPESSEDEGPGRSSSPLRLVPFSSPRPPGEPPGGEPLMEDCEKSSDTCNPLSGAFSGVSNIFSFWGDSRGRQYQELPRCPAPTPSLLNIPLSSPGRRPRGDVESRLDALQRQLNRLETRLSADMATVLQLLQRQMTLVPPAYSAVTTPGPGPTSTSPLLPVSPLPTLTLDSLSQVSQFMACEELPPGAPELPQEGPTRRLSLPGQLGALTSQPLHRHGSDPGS
In words: whole-cell patch clamp, tail current inhibition. Type of series: cell-based.

The target in series [4] is T4, hERG (hERG1a, Kv11.1) potassium channel (Homo sapiens, UniProt Q12809, F656T).
T4 construct: gene KCNH2; hERG1a F656T transiently expressed in HEK293 cells
T4 sequence (Q12809 whole entry F656T): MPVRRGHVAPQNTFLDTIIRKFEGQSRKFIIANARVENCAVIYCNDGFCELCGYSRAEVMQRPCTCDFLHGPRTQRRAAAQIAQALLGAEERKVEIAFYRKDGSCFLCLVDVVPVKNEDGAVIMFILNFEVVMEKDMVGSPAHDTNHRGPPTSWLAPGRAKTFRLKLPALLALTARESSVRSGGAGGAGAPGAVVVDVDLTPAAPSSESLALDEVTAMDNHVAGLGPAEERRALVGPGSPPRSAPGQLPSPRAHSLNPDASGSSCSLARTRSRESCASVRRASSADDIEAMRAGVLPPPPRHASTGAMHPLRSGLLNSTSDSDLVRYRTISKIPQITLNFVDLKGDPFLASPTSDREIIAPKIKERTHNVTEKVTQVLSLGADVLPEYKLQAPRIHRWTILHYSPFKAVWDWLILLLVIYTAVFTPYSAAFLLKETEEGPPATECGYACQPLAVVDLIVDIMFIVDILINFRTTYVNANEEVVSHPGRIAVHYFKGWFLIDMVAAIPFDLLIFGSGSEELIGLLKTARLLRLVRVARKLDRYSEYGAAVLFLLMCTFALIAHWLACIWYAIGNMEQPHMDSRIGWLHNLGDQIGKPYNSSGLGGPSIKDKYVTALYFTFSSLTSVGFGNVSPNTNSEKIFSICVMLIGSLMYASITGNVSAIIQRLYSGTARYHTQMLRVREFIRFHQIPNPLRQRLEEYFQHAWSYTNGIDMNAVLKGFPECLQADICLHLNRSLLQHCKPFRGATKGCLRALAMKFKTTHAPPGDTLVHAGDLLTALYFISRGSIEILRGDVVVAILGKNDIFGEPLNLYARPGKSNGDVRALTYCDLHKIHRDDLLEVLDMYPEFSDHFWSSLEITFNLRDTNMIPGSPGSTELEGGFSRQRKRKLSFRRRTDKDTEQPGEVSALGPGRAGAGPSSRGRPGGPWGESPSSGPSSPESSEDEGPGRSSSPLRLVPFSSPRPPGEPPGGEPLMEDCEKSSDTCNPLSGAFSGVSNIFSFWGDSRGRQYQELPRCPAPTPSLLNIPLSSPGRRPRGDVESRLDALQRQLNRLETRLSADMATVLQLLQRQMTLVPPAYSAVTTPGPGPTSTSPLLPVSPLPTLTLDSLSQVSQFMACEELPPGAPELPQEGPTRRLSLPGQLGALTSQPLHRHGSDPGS
In words: whole-cell patch clamp, tail current block by […]. Type of series: cell-based.

Series [5] has as its target T5, hERG (hERG1a, Kv11.1) potassium channel (Homo sapiens, UniProt Q12809, F656V).
T5 construct: gene KCNH2

T5 sequence (Q12809 whole entry F656V): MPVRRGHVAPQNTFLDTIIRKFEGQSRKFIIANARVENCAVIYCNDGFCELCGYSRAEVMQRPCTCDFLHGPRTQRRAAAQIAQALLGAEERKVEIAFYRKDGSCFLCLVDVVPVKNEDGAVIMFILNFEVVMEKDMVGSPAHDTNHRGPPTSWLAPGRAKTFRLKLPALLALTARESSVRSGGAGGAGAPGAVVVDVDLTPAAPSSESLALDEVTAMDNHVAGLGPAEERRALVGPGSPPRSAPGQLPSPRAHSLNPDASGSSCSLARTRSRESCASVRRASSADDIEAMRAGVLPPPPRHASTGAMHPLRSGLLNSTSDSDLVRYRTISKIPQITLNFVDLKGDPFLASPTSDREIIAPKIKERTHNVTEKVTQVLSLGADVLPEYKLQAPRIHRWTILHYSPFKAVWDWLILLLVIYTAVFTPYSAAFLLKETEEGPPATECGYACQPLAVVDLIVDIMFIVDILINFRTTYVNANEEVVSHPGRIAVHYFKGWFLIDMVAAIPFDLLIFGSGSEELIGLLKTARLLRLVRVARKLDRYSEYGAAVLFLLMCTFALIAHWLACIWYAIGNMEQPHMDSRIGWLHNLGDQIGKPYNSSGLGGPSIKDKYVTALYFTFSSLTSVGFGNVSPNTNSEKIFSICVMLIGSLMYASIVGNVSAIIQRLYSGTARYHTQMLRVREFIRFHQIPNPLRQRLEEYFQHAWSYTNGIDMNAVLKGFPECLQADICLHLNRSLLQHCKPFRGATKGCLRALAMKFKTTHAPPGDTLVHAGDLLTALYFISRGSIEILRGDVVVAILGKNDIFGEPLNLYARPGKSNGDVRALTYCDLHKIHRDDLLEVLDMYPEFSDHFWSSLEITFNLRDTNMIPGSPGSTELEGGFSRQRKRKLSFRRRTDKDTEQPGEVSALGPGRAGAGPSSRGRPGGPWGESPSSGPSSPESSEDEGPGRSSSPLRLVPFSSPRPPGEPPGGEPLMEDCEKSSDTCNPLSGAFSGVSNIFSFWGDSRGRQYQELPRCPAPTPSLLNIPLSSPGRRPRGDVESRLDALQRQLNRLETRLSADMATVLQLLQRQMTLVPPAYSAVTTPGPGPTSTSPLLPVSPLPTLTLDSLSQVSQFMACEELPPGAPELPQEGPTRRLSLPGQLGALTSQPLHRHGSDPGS
T1 sequence (A0A8M1PIE0 1-1186): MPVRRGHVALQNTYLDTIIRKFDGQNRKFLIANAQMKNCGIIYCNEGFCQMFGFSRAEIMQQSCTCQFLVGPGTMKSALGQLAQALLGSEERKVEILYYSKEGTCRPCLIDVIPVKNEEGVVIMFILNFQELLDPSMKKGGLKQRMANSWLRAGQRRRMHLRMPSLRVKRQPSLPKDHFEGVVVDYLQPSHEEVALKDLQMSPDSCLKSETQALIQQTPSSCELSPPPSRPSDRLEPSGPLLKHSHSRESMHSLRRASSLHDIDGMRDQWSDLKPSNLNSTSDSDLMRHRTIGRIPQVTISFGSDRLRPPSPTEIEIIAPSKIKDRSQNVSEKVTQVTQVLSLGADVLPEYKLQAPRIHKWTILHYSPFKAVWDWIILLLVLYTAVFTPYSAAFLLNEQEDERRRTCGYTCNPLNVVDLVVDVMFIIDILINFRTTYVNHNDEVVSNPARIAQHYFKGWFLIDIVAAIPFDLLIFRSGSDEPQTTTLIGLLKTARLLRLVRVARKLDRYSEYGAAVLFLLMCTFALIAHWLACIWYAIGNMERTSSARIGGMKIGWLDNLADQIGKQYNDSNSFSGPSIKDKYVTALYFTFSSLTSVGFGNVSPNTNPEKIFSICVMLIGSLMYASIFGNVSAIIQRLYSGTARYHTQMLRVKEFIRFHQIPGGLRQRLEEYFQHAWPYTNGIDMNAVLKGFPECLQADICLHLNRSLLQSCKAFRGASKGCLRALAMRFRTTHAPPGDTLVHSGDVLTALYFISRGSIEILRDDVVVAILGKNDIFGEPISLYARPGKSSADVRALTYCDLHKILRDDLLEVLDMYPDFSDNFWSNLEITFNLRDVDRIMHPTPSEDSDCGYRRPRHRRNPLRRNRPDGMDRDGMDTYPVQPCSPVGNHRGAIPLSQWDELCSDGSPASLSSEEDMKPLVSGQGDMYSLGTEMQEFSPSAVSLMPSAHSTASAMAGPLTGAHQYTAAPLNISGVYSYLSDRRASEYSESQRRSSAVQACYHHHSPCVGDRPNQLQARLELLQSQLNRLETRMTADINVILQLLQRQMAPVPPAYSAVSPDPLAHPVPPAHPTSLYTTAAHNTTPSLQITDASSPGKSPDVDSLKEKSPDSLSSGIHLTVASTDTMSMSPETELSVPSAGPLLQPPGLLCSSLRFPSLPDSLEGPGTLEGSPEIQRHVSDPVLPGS

On to `c1ccc2c(c1)ccc1ccccc12` [phenanthrene], for which the IC50 is 8.77 ± 0.93 µM in series [1], 0.46 ± 0.01 µM in series [2] and 17.6 ± 1.7 µM in series [3]. The “whole-cell patch clamp, tail current block by 30 μM” value is given as “this effect was not statistically significantly different from block of WT IhERG” in series [4] and “also did not impair the inhibitory effect of phenanthrene, showing a trend towards increased block” in series [5].
